Source: paper PMC5218480 (PLoS ONE, 2017)

Test system: MV-4-11 cells
Assay: Gene expression microarray analysis (Affymetrix PrimeView) and GSEA
Format: cell-based, human
Design: RFU PODN (11730768_x_at) / Fold change /veh PODN (11730768_x_at) / RFU LINC00158 (11744669_a_at) / Fold change /veh LINC00158 (11744669_a_at) / RFU DUSP10 (11751237_a_at) / Fold change /veh DUSP10 (11751237_a_at) / RFU ID3 (11757404_x_at) / Fold change /veh ID3 (11757404_x_at) / RFU PLEKHG5 (11737974_s_at) / Fold change /veh PLEKHG5 (11737974_s_at) / RFU LRRC4B (11730491_at) / Fold change /veh LRRC4B (11730491_at) / RFU GIMAP4 (11747438_a_at) / Fold change /veh GIMAP4 (11747438_a_at) / RFU KRT8 (11758183_x_at) / Fold change /veh KRT8 (11758183_x_at) / RFU CNN1 (11734310_a_at) / Fold change /veh CNN1 (11734310_a_at) / RFU VPS37D (11726825_at) / Fold change /veh VPS37D (11726825_at) / RFU C10orf10 (11716522_x_at) / Fold change /veh C10orf10 (11716522_x_at) / RFU KIR2DL2 /// KIR2DL4 /// KIR2DL5A /// KIR2DL5B /// KIR2DS1 /// KIR2DS2 /// KIR2DS3 /// KIR2DS4 /// KIR3DL3 /// KIR3DL3 /// KIR3DS1 (11738374_at) / Fold change /veh KIR2DL2 /// KIR2DL4 /// KIR2DL5A /// KIR2DL5B /// KIR2DS1 /// KIR2DS2 /// KIR2DS3 /// KIR2DS4 /// KIR3DL3 /// KIR3DL3 /// KIR3DS1 (11738374_at) / RFU C1QL1 (11718748_at) / Fold change /veh C1QL1 (11718748_at) / RFU TMPRSS4 (11747572_a_at) / Fold change /veh TMPRSS4 (11747572_a_at) / RFU HAMP (11756126_x_at) / Fold change /veh HAMP (11756126_x_at) / RFU RNFT2 (11725882_a_at) / Fold change /veh RNFT2 (11725882_a_at) / RFU NR4A2 (11747474_a_at) / Fold change /veh NR4A2 (11747474_a_at) / RFU ABCC12 (11746883_a_at) / Fold change /veh ABCC12 (11746883_a_at) / RFU TMEM136 (11760407_x_at) / Fold change /veh TMEM136 (11760407_x_at) / RFU CLDN22 /// WWC2 (11732394_at) / Fold change /veh CLDN22 /// WWC2 (11732394_at) / RFU HLA-DPB1 (11760878_x_at) / Fold change /veh HLA-DPB1 (11760878_x_at) / RFU SPINT1 (11716480_a_at) / Fold change /veh SPINT1 (11716480_a_at) / RFU GAP43 (11754022_s_at) / Fold change /veh GAP43 (11754022_s_at) / RFU A4GNT (11735810_at) / Fold change /veh A4GNT (11735810_at) / RFU PRB3 (11715151_x_at) / Fold change /veh PRB3 (11715151_x_at) / RFU TUBB4B (11761932_at) / Fold change /veh TUBB4B (11761932_at) / RFU CAPN14 (11732068_a_at) / Fold change /veh CAPN14 (11732068_a_at) / RFU TMCC2 (11721928_a_at) / Fold change /veh TMCC2 (11721928_a_at) / RFU IRGQ (11745062_a_at) / Fold change /veh IRGQ (11745062_a_at) / RFU FAM174B (11720279_a_at) / Fold change /veh FAM174B (11720279_a_at) / RFU TMPRSS4 (11748680_a_at) / Fold change /veh TMPRSS4 (11748680_a_at) / RFU FAM212B (11763350_a_at) / Fold change /veh FAM212B (11763350_a_at) / RFU PLEKHG5 (11743358_a_at) / Fold change /veh PLEKHG5 (11743358_a_at) / RFU ZSCAN30 (11745921_a_at) / Fold change /veh ZSCAN30 (11745921_a_at) / RFU CMKLR1 (11741424_a_at) / Fold change /veh CMKLR1 (11741424_a_at) / RFU LOC101060620 /// MAPK8IP1 (11723275_at) / Fold change /veh LOC101060620 /// MAPK8IP1 (11723275_at) / RFU SPTSSB (11747773_x_at) / Fold change /veh SPTSSB (11747773_x_at) / RFU PRSS12 (11739890_at) / Fold change /veh PRSS12 (11739890_at) / RFU BIN1 (11741810_x_at) / Fold change /veh BIN1 (11741810_x_at) / RFU WNT11 (11732464_a_at) / Fold change /veh WNT11 (11732464_a_at) / RFU C10orf10 (11716521_a_at) / Fold change /veh C10orf10 (11716521_a_at) / RFU C5orf56 (11738089_at) / Fold change /veh C5orf56 (11738089_at) / RFU CYB561 (11721691_x_at) / Fold change /veh CYB561 (11721691_x_at) / RFU ANKRD19P (11752326_a_at) / Fold change /veh ANKRD19P (11752326_a_at) / RFU OR2T12 /// OR2T33 /// OR2T8 (11738714_s_at) / Fold change /veh OR2T12 /// OR2T33 /// OR2T8 (11738714_s_at) / RFU VCAN (11748164_a_at) / Fold change /veh VCAN (11748164_a_at) / RFU JSRP1 (11732532_at) / Fold change /veh JSRP1 (11732532_at) / RFU KRTAP10-11 (11738290_x_at) / Fold change /veh KRTAP10-11 (11738290_x_at) / RFU MYO3A (11730013_a_at) / Fold change /veh MYO3A (11730013_a_at) / RFU EBF3 (11725865_a_at) / Fold change /veh EBF3 (11725865_a_at) / RFU CAMK2N1 (11719241_x_at) / Fold change /veh CAMK2N1 (11719241_x_at) / RFU C5orf56 (11738088_a_at) / Fold change /veh C5orf56 (11738088_a_at) / RFU OLFML3 (11715873_a_at) / Fold change /veh OLFML3 (11715873_a_at) / RFU LOC100653217 /// NTM (11731650_a_at) / Fold change /veh LOC100653217 /// NTM (11731650_a_at) / RFU MAPK11 (11762145_a_at) / Fold change /veh MAPK11 (11762145_a_at) / RFU FIZ1 (11724087_x_at) / Fold change /veh FIZ1 (11724087_x_at) / RFU OASL (11726364_x_at) / Fold change /veh OASL (11726364_x_at) / RFU SOX15 (11748057_x_at) / Fold change /veh SOX15 (11748057_x_at) / RFU CD79A (11719716_a_at) / Fold change /veh CD79A (11719716_a_at) / RFU HIST1H1D (11736915_at) / Fold change /veh HIST1H1D (11736915_at) / RFU CASKIN2 (11723855_a_at) / Fold change /veh CASKIN2 (11723855_a_at) / RFU LOC730098 (11760151_x_at) / Fold change /veh LOC730098 (11760151_x_at) / RFU OR4N2 (11742367_at) / Fold change /veh OR4N2 (11742367_at) / RFU PRRT2 (11749266_a_at) / Fold change /veh PRRT2 (11749266_a_at) / RFU SNX32 (11753110_a_at) / Fold change /veh SNX32 (11753110_a_at) / RFU CDHR5 (11726645_a_at) / Fold change /veh CDHR5 (11726645_a_at) / RFU RCAN1 (11760418_a_at) / Fold change /veh RCAN1 (11760418_a_at) / RFU FAM167A (11723789_a_at) / Fold change /veh FAM167A (11723789_a_at) / RFU FAM26E (11764081_at) / Fold change /veh FAM26E (11764081_at) / RFU ISYNA1 (11749810_s_at) / Fold change /veh ISYNA1 (11749810_s_at) / RFU ACY1 (11761880_at) / Fold change /veh ACY1 (11761880_at) / RFU 11764098_at / Fold change /veh 11764098_at / RFU SAMD14 (11745864_x_at) / Fold change /veh SAMD14 (11745864_x_at) / RFU NPB (11741838_a_at) / Fold change /veh NPB (11741838_a_at) / RFU TMPRSS6 (11731388_a_at) / Fold change /veh TMPRSS6 (11731388_a_at) / RFU KRTAP10-2 (11738614_at) / Fold change /veh KRTAP10-2 (11738614_at) / RFU ARHGAP8 /// PRR5-ARHGAP8 (11727945_x_at) / Fold change /veh ARHGAP8 /// PRR5-ARHGAP8 (11727945_x_at) / RFU KRTAP5-7 /// NADSYN1 (11734609_at) / Fold change /veh KRTAP5-7 /// NADSYN1 (11734609_at) / RFU RASL12 (11751679_a_at) / Fold change /veh RASL12 (11751679_a_at) / RFU CDKN2B (11736163_a_at) / Fold change /veh CDKN2B (11736163_a_at) / RFU PRF1 (11729649_at) / Fold change /veh PRF1 (11729649_at) / RFU, ZNF638 /// ZNF638-IT1 / Fold change vs veh, ZNF638 /// ZNF638-IT1 / RFU, PANK3 / Fold change vs veh, PANK3 / RFU, SH3YL1 / Fold change vs veh, SH3YL1 / RFU, ZEB2 / Fold change vs veh, ZEB2 / RFU, NRIP1 / Fold change vs veh, NRIP1 / RFU, PTTG1IP / Fold change vs veh, PTTG1IP / RFU, CAPN2 / Fold change vs veh, CAPN2 / RFU, MED14 / Fold change vs veh, MED14 / RFU, SNORA58 / Fold change vs veh, SNORA58 / RFU, C1orf63 / Fold change vs veh, C1orf63 / RFU, LRRFIP1 / Fold change vs veh, LRRFIP1 / RFU, NDUFAF7 / Fold change vs veh, NDUFAF7 / RFU, SLC12A2 / Fold change vs veh, SLC12A2 / RFU, IBTK / Fold change vs veh, IBTK / RFU, ESF1 / Fold change vs veh, ESF1 / Fold change vs veh, TMEM50B / RFU, TAOK1 / Fold change vs veh, TAOK1 / RFU, ACBD3 / Fold change vs veh, ACBD3 / RFU, TMA16 / Fold change vs veh, TMA16 / RFU, RWDD3 / Fold change vs veh, RWDD3 / RFU, BCAT1 / Fold change vs veh, BCAT1 / RFU, EDEM3 / Fold change vs veh, EDEM3 / RFU, TMEM33 / Fold change vs veh, TMEM33 / RFU, WDR75 / Fold change vs veh, WDR75 / RFU, AHCTF1 / Fold change vs veh, AHCTF1 / RFU, TFRC / Fold change vs veh, TFRC / RFU, ZDHHC17 / Fold change vs veh, ZDHHC17 / RFU, NOM1 / Fold change vs veh, NOM1 / RFU, ARL8B / Fold change vs veh, ARL8B / RFU, ZBTB11 / Fold change vs veh, ZBTB11 / RFU, TAMM41 / Fold change vs veh, TAMM41 / RFU, KIAA1704 /// LOC100996395 / Fold change vs veh, KIAA1704 /// LOC100996395 / RFU, ING1 / Fold change vs veh, ING1 / RFU, TRMT61B / Fold change vs veh, TRMT61B / RFU, FUBP3 / Fold change vs veh, FUBP3 / RFU, TP53 / Fold change vs veh, TP53 / RFU, TNKS2 / Fold change vs veh, TNKS2 / RFU, ZFP14 / Fold change vs veh, ZFP14 / RFU, ACTR2 / Fold change vs veh, ACTR2 / RFU, PPP3R1 / Fold change vs veh, PPP3R1 / RFU, PIK3R1 / Fold change vs veh, PIK3R1 / RFU, HNRNPA1 / Fold change vs veh, HNRNPA1 / RFU, RNF170 / Fold change vs veh, RNF170 / RFU, ZNF28 / Fold change vs veh, ZNF28 / RFU, RNGTT / Fold change vs veh, RNGTT / RFU, OGT / Fold change vs veh, OGT / RFU, BRD1 / Fold change vs veh, BRD1 / RFU, MARS / Fold change vs veh, MARS / RFU, ZNF655 / Fold change vs veh, ZNF655 / RFU, FAHD1 / Fold change vs veh, FAHD1 / RFU, BDP1 / Fold change vs veh, BDP1 / RFU, LRRCC1 / Fold change vs veh, LRRCC1 / RFU, ARID1A / Fold change vs veh, ARID1A / RFU, ZNF146 / Fold change vs veh, ZNF146 / RFU, ZNF330 / Fold change vs veh, ZNF330 / RFU, GPN3 / Fold change vs veh, GPN3 / RFU, C9orf123 / Fold change vs veh, C9orf123 / RFU, N4BP2L2 / Fold change vs veh, N4BP2L2 / RFU, ARFIP1 / Fold change vs veh, ARFIP1 / RFU, FAM179B / Fold change vs veh, FAM179B / RFU, BCL10 / Fold change vs veh, BCL10 / RFU, UHRF1BP1L / Fold change vs veh, UHRF1BP1L / RFU, BET1 / Fold change vs veh, BET1 / RFU, CNOT2 / Fold change vs veh, CNOT2 / RFU, ZNF268 / Fold change vs veh, ZNF268 / Fold change vs veh, ZNF507 / RFU, DGCR2 / Fold change vs veh, DGCR2 / RFU, WDSUB1 / Fold change vs veh, WDSUB1 / Fold change vs veh, HSP90B1 /// MIR3652 / RFU, ADSS / Fold change vs veh, ADSS / RFU, GK / Fold change vs veh, GK / RFU, ZNF148 / Fold change vs veh, ZNF148 / RFU, TAF9 / Fold change vs veh, TAF9 / RFU, SLC1A5 / Fold change vs veh, SLC1A5 / RFU, SLMO2 / Fold change vs veh, SLMO2 / RFU, ABCC4 / Fold change vs veh, ABCC4 / RFU, LOC101060439 /// RAP1B / Fold change vs veh, LOC101060439 /// RAP1B / RFU, RFX7 / Fold change vs veh, RFX7 / RFU, GTPBP10 / Fold change vs veh, GTPBP10 / RFU, CNEP1R1 / Fold change vs veh, CNEP1R1 / RFU, BIVM-ERCC5 /// ERCC5 / Fold change vs veh, BIVM-ERCC5 /// ERCC5 / RFU, ILF3 / Fold change vs veh, ILF3 / RFU 11762660_at / Fold change /veh 11762660_at / RFU VCAN (11757783_s_at) / Fold change /veh VCAN (11757783_s_at) / RFU DDX43 (11728927_at) / Fold change /veh DDX43 (11728927_at) / RFU KRT8 (11758188_x_at) / Fold change /veh KRT8 (11758188_x_at) / RFU NKD1 (11759106_at) / Fold change /veh NKD1 (11759106_at) / RFU SRD5A1 (11742802_a_at) / Fold change /veh SRD5A1 (11742802_a_at) / RFU TPSAB1 /// TPSB2 (11721975_s_at) / Fold change /veh TPSAB1 /// TPSB2 (11721975_s_at) / RFU GSTM3 (11746129_a_at) / Fold change /veh GSTM3 (11746129_a_at) / RFU IL23R (11737362_x_at) / Fold change /veh IL23R (11737362_x_at) / RFU TMEM51 (11727254_a_at) / Fold change /veh TMEM51 (11727254_a_at) / RFU PIWIL2 (11732686_x_at) / Fold change /veh PIWIL2 (11732686_x_at) / RFU ORM1 (11744905_x_at) / Fold change /veh ORM1 (11744905_x_at) / RFU CCDC152 (11743942_at) / Fold change /veh CCDC152 (11743942_at) / RFU ECM1 (11717891_a_at) / Fold change /veh ECM1 (11717891_a_at) / RFU IL23R (11748794_a_at) / Fold change /veh IL23R (11748794_a_at) / RFU TNFAIP8L3 (11732012_x_at) / Fold change /veh TNFAIP8L3 (11732012_x_at) / RFU MBOAT4 (11741988_at) / Fold change /veh MBOAT4 (11741988_at) / RFU 11764193_at / Fold change /veh 11764193_at / RFU TMEM53 (11763286_at) / Fold change /veh TMEM53 (11763286_at) / RFU MAGEB2 (11727129_at) / Fold change /veh MAGEB2 (11727129_at) / RFU TMEM200A (11744735_a_at) / Fold change /veh TMEM200A (11744735_a_at) / RFU CCDC152 (11751479_a_at) / Fold change /veh CCDC152 (11751479_a_at) / RFU FAM211A (11726209_a_at) / Fold change /veh FAM211A (11726209_a_at) / RFU RGS16 (11746705_a_at) / Fold change /veh RGS16 (11746705_a_at) / RFU VCAN (11755009_s_at) / Fold change /veh VCAN (11755009_s_at) / RFU RHOB (11743442_s_at) / Fold change /veh RHOB (11743442_s_at) / RFU RGS16 (11720943_a_at) / Fold change /veh RGS16 (11720943_a_at) / RFU RGS16 (11720944_at) / Fold change /veh RGS16 (11720944_at) / RFU, VPS4B / Fold change vs veh, VPS4B / RFU, CREB1 / Fold change vs veh, CREB1 / RFU, DNAJC13 / Fold change vs veh, DNAJC13 / RFU, GNAQ / Fold change vs veh, GNAQ / RFU, CDK5R1 / Fold change vs veh, CDK5R1 / RFU, ZRANB3 / Fold change vs veh, ZRANB3 / RFU, CUL4A / Fold change vs veh, CUL4A / RFU, CCNY / Fold change vs veh, CCNY / RFU, UFL1 / Fold change vs veh, UFL1 / RFU, COG3 / Fold change vs veh, COG3 / RFU, DIAPH2 / Fold change vs veh, DIAPH2 / RFU, SKA2 / Fold change vs veh, SKA2 / RFU, AFF3 / Fold change vs veh, AFF3 / RFU, LMF1 / Fold change vs veh, LMF1 / RFU, IPO11 / Fold change vs veh, IPO11 / RFU, DFFB / Fold change vs veh, DFFB / RFU, FOXP1 / Fold change vs veh, FOXP1 / RFU, CARD8 / Fold change vs veh, CARD8 / RFU, STRN3 / Fold change vs veh, STRN3 / RFU, ADK / Fold change vs veh, ADK / RFU, RASSF2 / Fold change vs veh, RASSF2 / RFU, WIPF1 / Fold change vs veh, WIPF1 / RFU, LARP1B / Fold change vs veh, LARP1B / RFU, RASA1 / Fold change vs veh, RASA1 / RFU, RB1 / Fold change vs veh, RB1 / RFU, PPFIA1 / Fold change vs veh, PPFIA1 / RFU, MAT2A / Fold change vs veh, MAT2A / RFU, CCT5 / Fold change vs veh, CCT5 / RFU, WDR92 / Fold change vs veh, WDR92 / RFU, CUX1 / Fold change vs veh, CUX1 / RFU, TTC7A / Fold change vs veh, TTC7A / RFU, TMEM135 / Fold change vs veh, TMEM135 / RFU, DEPTOR / Fold change vs veh, DEPTOR / RFU, CPM / Fold change vs veh, CPM / RFU, DNAJB6 / Fold change vs veh, DNAJB6 / RFU, CACNA2D3 / Fold change vs veh, CACNA2D3 / RFU, DTX4 / Fold change vs veh, DTX4 / RFU, TFCP2 / Fold change vs veh, TFCP2 / RFU, GMCL1 /// GMCL1P1 / Fold change vs veh, GMCL1 /// GMCL1P1 / RFU, AEBP2 / Fold change vs veh, AEBP2 / RFU, SNHG1 /// SNORD22 /// SNORD25 /// SNORD26 /// SNORD27 /// SNORD28 /// SNORD29 /// SNORD31 / Fold change vs veh, SNHG1 /// SNORD22 /// SNORD25 /// SNORD26 /// SNORD27 /// SNORD28 /// SNORD29 /// SNORD31 / Fold change (Aza/veh), C12orf56 (ProbeSet 11735607_a_at) / Fold change (ACY-1035/veh), C12orf56 (ProbeSet 11735607_a_at) / Fold change (Aza/veh), FGFR1OP (ProbeSet 11751329_s_at) / Fold change (ACY-1035/veh), FGFR1OP (ProbeSet 11751329_s_at) / Fold change (Aza/veh), VPS36 (ProbeSet 11739960_a_at) / Fold change (ACY-1035/veh), VPS36 (ProbeSet 11739960_a_at) / RFU SYPL1 (11715823_x_at) / Fold change /veh SYPL1 (11715823_x_at) / RFU IGFBP7 (11715501_s_at) / Fold change /veh IGFBP7 (11715501_s_at) / RFU REEP3 (11722064_at) / Fold change /veh REEP3 (11722064_at) / RFU IGLL1 (11728026_x_at) / Fold change /veh IGLL1 (11728026_x_at): dose or concentration left out as unconfirmed
Conditions: MV-4-11 cells, 48 hours

Question: How did the “RFU SAMD14 (11745864_x_at)” value turn out when Nc1ccc(-c2cccs2)cc1NC(=O)c1ccc2c(c1)cc(C1CC1)n2CCN1CCOCC1 [ACY-1035] was run?
Answer: 19.46 RFU
